The target in assay [1] is T1, phosphorylated EGFR (pEGFR) (Homo sapiens, UniProt P00533).
T1 construct: performed to measure phosphorylated EGFR levels using A431 cells; endogenous in cells; host or cells: A431
Nature of the assay: Detection of phosphorylated EGFR (pEGFR) in EGF-stimulated A431 cells (AlphaLISA). The assay is classed as cell-based. To be noted: A431 cells (10% FBS), 4 hours incubation, EGF 30 ng/mL for 10 minutes. How it is done:
Enzyme-linked immunosorbent assays (ELISA) were performed to measure phosphorylated EGFR levels using A431 cells (10% FBS). A431 (1.0*10^4 cells/40 μl/well) cells were seeded in 384 well. Compounds were dissolved in DMSO, serially diluted in DMSO and then were added, mixed, and incubated for 4 hours at 37° C., 5% CO2. Following the 4-hours incubation, cells were stimulated for 10 minutes with EGF (Invitrogen, cat #PHG0311) at a final concentration of 30 ng/mL in the incubator. The media was aspirated and cells were lysed in 10 μL lysis buffer with protease and phosphatase inhibitors (PerkinElmer, cat #ALSU-PEGFR-A50K). The plates were placed on a shaker for 5 minutes and then incubated for 30 min at 4° C. for complete lysis. The lysate was transferred to an Optiplate (Perkin Elmer, cat #6007290).
Acceptor mix (PerkinElmer, cat #ALSU-PEGFR-A50K) was prepared just before use and 5 μL was dispensed to all the wells, followed by a 1.5-2 h incubation at room temperature in dark. The donor mix (PerkinElmer, cat #ALSU-PEGFR-A50K) was prepared under low light conditions prior to use and 5 μl of donor mix was added to all the wells under subdued lighting or green filters. The plates were placed on a shaker for 5 min, sealed, and incubated overnight at room temperature in dark. Plates were read on the Envision (PerkinElmer) using standard AlphaLISA settings.
The percentage of inhibition on EGFR phosphorylation was calculated following equation: % Inhibition=100×(LumHC−LumSample)/(LumHC−LumLC). The low and high controls (LC/HC) are generated from lysate from wells with cells treated with DMSO or […] Staurosporine (BioAustralis, cat #BIA-S1086), […]. IC50 values were calculated by fitting the Curve using XLfit (v5.3.1.3), equation 201: Y=Bottom+ (Top−Bottom)/(1+10^((LogIC50−X)*HillSlope)).

The target of assay [2] is Ba/F3 ERBB2 YVMA (Homo sapiens, UniProt P04626, DUP772-775, cells depend on it). Nature of the assay: Cell viability assay (CellTiter Glo) in Ba/F3 cells engineered to express ERBB2 YVMA. The assay is classed as cell-based, mouse. As to conditions: Ba/F3 cells expressing human ERBB2 YVMA mutant, 72 hours, % viability, read-out: Ba/F3 ERBB2 YVMA IC50. The protocol:
Cells were treated with compounds, and cell viability was measured as a metric of kinase inhibition.
The Ba/F3 cell line is IL-3-dependent mouse cell line derived from the C3H mouse strain. Ba/F3 cell lines were engineered to express human ERBB2 or EGFR kinases, rendering the cells IL-3 independent. The lines were generated via retroviral transduction utilizing a Moloney murine leukemia virus (MMLV) promoter, and constructs are stably integrated into the cell genome. The sequences of the ERBB2 and EGFR genes used were NCBI Reference Sequences NM_004448.3 and NM_005228.3, respectively.
Similarly, Ba/F3 cell lines engineered to express EGFR, ERBB2, or ERBB2 mutants were grown, harvested, counted and seeded at 3000 cells per well in 96-well plates for the data sets shown in Tables B3-B4. A subset of wells contained media only (low control, “LC”).
Table B1 provides the growth media and number of cells seeded per well for the each cell line.
Compounds were dissolved in DMSO and serially diluted. Serially-diluted compound or a DMSO only control (high control, “HC”) was added to the plated cells in each well. […] The final proportion of DMSO never exceeded 0.1%.
Plates were placed in a 37° C., 5% CO2 incubator for 72 hours. Plates were then removed from the incubator and equilibrated for 15 minutes at room temperature. 40 μl of CellTiter Glo reagent (Promega) was added to measure the relative level of metabolically active cells by quantifying intracellular ATP concentrations. Plates were incubated for 30 minutes at room temperature, and luminescence was measured. Percent viability was normalized to a vehicle control only using the following formula: % viability=100×(Lumsample−LumLC)/(LumHC−LumLC). Graphical curves were fitted using a nonlinear regression model with a sigmoidal dose response.
(In general: ATP-based viability assays read luminescence as a measure of living cells.)

Assay [3] has as its target T2, phosphorylated ERBB2 (pERBB2) (Homo sapiens, UniProt P04626).
T2 construct: endogenous in cells; host or cells: BT-474
Nature of the assay: Detection of phosphorylated ERBB2 (pERBB2) by ELISA in BT-474 cells. The format is cell-based. To be noted: four hour incubation with compound. How it is done:
BT-474 cells were seeded into a 96-well at 2.0*10^4 cells/100 μl/well. Compounds were dissolved and serially diluted in DMSO. The compounds were then were added, mixed, and incubated for four hours at 37° C., 5% CO2. Compounds were added using four-fold dilutions at final concentrations ranging from 10 μM to 0.01 nM. Following the four hour incubation with compounds, cell lysates were prepared. Plates were centrifuged for 5 min at 3000 RPM, and supernatant was removed from each well. Cells were washed 3 times by resuspension in 150 μl PBS, followed by centrifugation and removal of the supernatant, as above. […] Cells were incubated with lysis buffer for 1 hour at 4° C., and then stored at -80° C. Enzyme-linked immunosorbent assays (ELISA) were performed to measure phosphorylated ERBB2 levels. […] The next day, plates were washed with PBS+0.05% Tween20 (PBST). 150 μl of 5% BSA blocking solution was added for 1 hour at room temperature, with shaking. Plates were washed with PBST. Cell lysates were thawed and 100 μl of lysate was added to the ELISA plate. The plates were incubated for 2 hours at room temperature, with shaking. […] Plates were incubated for 1 hour at room temperature, with shaking. Plates were then washed with PBST, and 100 μl TMB substrate solution (R&D Systems, cat #DY999) was added. Plate were incubated in the dark for 20 minutes at room temperature. 50 μl of Stop solution (R&D Systems, cat #DY994) (50 μl) was added to each well and mixed. Optical density at 450 nm was read on an EnSpire plate reader (Perkin Elmer). The remaining kinase activity by calculated using the following formula: % Relative activity=100×([…]). The low and high control values (“LC” and “HC”) were generated from lysate from wells without cells or with cells treated with 0.1% DMSO, respectively.
A general note: ELISA stands for enzyme-linked immunosorbent assay.

The structures appear in SMILES notation. pIC50: −log10 of the molar value.

T2 sequence (P04626 23-1255): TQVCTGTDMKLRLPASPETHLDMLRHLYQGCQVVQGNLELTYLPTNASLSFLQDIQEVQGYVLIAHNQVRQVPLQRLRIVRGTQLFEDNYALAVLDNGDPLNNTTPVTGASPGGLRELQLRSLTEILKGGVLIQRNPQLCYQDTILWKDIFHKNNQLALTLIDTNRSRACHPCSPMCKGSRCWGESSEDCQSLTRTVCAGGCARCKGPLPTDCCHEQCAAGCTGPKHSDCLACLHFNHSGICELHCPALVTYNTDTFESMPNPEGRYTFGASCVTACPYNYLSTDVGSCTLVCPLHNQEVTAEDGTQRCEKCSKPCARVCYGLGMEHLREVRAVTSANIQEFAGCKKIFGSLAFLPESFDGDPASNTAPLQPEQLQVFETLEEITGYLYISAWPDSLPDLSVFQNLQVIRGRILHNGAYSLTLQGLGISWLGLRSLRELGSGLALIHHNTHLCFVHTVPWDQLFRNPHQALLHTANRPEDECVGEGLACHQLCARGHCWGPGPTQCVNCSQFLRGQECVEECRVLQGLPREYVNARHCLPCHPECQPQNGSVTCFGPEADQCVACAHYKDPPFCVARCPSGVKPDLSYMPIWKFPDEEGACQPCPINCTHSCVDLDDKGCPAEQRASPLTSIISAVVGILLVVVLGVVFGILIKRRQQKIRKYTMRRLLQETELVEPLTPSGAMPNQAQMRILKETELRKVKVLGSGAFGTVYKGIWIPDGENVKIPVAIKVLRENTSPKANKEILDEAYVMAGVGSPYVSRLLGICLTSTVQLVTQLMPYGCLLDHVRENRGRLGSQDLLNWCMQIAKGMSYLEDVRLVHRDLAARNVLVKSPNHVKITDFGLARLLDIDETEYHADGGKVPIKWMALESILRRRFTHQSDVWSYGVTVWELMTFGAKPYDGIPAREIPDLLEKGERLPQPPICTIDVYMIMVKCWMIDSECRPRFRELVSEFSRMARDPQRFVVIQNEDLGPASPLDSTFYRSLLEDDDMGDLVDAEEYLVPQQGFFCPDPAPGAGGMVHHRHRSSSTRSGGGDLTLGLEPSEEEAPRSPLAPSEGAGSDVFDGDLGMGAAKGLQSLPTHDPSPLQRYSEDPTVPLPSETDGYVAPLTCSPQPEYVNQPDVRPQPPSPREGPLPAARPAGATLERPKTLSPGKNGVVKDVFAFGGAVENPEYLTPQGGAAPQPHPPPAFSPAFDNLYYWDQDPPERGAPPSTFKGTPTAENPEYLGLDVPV
T1 sequence (P00533 25-1210): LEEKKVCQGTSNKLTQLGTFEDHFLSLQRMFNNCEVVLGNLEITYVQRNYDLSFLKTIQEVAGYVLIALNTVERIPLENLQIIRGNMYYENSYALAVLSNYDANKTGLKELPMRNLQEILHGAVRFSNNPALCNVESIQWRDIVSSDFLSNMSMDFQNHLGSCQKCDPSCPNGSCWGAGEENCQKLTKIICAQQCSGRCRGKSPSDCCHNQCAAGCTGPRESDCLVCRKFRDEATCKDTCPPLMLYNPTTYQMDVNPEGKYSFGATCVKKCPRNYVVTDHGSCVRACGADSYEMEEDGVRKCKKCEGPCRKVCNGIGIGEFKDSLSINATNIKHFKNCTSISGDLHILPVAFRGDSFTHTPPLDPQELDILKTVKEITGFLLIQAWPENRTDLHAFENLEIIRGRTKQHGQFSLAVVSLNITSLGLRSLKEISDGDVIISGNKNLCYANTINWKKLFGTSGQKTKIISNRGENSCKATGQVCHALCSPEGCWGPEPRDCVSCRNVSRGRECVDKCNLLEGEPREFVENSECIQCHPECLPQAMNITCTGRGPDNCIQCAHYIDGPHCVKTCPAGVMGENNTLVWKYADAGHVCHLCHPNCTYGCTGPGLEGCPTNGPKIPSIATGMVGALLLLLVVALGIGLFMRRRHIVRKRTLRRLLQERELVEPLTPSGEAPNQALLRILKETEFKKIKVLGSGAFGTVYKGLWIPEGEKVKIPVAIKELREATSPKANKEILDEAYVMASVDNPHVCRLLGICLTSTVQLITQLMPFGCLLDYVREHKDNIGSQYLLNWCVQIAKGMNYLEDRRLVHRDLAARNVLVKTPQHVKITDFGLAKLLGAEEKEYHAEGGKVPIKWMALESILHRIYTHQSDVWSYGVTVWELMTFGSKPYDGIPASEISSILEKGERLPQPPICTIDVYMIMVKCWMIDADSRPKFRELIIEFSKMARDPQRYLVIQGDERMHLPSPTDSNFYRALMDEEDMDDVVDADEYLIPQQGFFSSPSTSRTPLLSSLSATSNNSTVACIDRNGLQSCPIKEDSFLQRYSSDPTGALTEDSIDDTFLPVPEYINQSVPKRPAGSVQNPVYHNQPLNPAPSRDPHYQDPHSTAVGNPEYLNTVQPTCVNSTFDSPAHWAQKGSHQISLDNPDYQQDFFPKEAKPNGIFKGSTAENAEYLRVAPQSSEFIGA
Ba/F3 ERBB2 YVMA, sequence (P04626 with tags, fused parts or gaps DUP772-775): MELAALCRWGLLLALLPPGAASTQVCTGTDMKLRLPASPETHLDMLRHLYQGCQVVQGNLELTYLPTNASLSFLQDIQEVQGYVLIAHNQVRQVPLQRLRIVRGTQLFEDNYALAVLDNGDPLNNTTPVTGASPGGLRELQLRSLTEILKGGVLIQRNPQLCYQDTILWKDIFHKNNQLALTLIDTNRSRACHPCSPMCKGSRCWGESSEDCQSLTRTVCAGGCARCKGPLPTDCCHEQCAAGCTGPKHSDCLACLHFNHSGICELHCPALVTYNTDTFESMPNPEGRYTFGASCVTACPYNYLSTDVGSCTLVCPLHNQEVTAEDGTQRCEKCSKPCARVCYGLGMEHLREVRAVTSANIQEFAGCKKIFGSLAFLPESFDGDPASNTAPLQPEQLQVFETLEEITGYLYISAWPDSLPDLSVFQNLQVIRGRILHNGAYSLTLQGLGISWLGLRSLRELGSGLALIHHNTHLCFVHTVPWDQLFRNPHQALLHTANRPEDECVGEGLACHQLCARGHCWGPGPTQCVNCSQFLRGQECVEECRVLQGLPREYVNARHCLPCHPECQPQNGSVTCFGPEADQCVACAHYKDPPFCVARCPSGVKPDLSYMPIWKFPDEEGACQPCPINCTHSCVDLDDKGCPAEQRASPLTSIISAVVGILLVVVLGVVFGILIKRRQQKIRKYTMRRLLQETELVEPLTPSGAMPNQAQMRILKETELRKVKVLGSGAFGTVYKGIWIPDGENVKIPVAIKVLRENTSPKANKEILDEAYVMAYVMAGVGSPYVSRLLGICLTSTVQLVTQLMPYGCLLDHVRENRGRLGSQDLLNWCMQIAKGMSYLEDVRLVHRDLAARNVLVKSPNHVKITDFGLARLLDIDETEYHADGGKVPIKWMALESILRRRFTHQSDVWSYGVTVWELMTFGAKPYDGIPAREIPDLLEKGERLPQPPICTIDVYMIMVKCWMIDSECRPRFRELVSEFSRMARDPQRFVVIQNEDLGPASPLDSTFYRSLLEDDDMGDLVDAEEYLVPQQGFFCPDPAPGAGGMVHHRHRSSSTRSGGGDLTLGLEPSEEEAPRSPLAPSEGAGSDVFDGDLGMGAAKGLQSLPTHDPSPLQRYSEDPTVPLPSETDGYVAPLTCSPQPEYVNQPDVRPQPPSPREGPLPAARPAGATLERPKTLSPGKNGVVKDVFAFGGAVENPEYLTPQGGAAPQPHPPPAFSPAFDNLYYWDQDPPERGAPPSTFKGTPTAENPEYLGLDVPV

In the case of `C=CC(=O)N1CC[C@H](Oc2ccc3ncnc(Nc4ccc(Oc5ccn6ncnc6c5)c(C)c4)c3c2)C1` [Compound 1, (S)-1-(3-((4-((4-([1,2,4]triazolo[1,5-a]pyridin-7-yloxy)-3-methylphenyl)amino)quinazolin-6-yl)oxy)pyrrolidin-1-yl)prop-2-en-1-one], the pIC50 in assay [1] was 6.48; in assay [3], 8.25. The GI50 in assay [2] came out at 0.00898 µM.
On the same counts, the results for `C=CC(=O)N1CCN(c2cc3c(Nc4ccc(OC5CCN(C(=O)C6CCCC6)CC5)c(C)c4)ncnc3cn2)CC1` [Compound 2, 1-(4-(4-((4-((1-(cyclopentanecarbonyl)piperidin-4-yl)oxy)-3-methylphenyl)amino)pyrido[3,4-d]pyrimidin-6-yl)piperazin-1-yl)prop-2-en-1-one] are 5.57, 7.32 and 0.0203 µM.
For the compound `C=CC(=O)N1CCN(c2cc3c(Nc4ccc(OC5CCN(C(=O)CC(C)(C)C)CC5)c(C)c4)ncnc3cn2)CC1` [Compound 3, 3,3-dimethyl-1-{4-[2-methyl-4-({6-[4-(prop-2-enoyl)piperazin-1-yl]pyrido[3,4-d]pyrimidin-4-yl}amino)phenoxy]piperidin-1-yl}butan-1-one], the pIC50 in assay [1] is 5.77; in assay [3], 7.37. For the same compound, the GI50 in assay [2] came to 0.0402 µM.
With `C=CC(=O)N1CCN(c2ccc3ncnc(Nc4ccc(Oc5ccn6ncnc6c5)c(C)c4)c3n2)CC1` [Compound 4, 1-(4-{4-[(3-methyl-4-{[1,2,4]triazolo[1,5-a]pyridin-7-yloxy}phenyl)amino]pyrido[3,2-d]pyrimidin-6-yl}piperazin-1-yl)prop-2-en-1-one], the pIC50 in assay [1] is 6.43; in assay [3], 8.07. Moreover, the GI50 in assay [2] was 0.00819 µM.
With `C=CC(=O)N1CC2CC(C1)N2c1ccc2ncnc(Nc3ccc(Oc4ccn5ncnc5c4)c(C)c3)c2n1` [Compound 5, 1-(6-{4-[(3-methyl-4-{[1,2,4]triazolo[1,5-a]pyridin-7-yloxy}phenyl)amino]pyrido[3,2-d]pyrimidin-6-yl}-3,6-diazabicyclo[3.1.1]heptan-3-yl)prop-2-en-1-one], the negative logarithm of the IC50 (pIC50) in assay [1] was 6.32; in assay [3], 7.77. Moreover, the GI50 in assay [2] was 0.018 µM.
In the same order, the values of `C=CC(=O)N1CC2CC1CN2c1ccc2ncnc(Nc3ccc(Oc4ccn5ncnc5c4)c(C)c3)c2n1` (stereo not drawn) [Compound 6, 1-(5-{4-[(3-methyl-4-{[1,2,4]triazolo[1,5-a]pyridin-7-yloxy}phenyl)amino]pyrido[3,2-d]pyrimidin-6-yl}-2,5-diazabicyclo[2.2.1]heptan-2-yl)prop-2-en-1-one] are 6.87, 7.86 and 0.00565 µM.
In the same order, the values of `C=CC(=O)N1CCN(c2ccc3ncnc(Nc4ccc(Oc5ccn6ncnc6c5)c(C)c4)c3c2)CC1` [Compound 7, 1-(4-{4-[(3-methyl-4-{[1,2,4]triazolo[1,5-a]pyridin-7-yloxy}phenyl)amino]quinazolin-6-yl}piperazin-1-yl)prop-2-en-1-one] are 6.16, 7.89 and 0.00865 µM.
In the same order, the values of `CC#CC(=O)N1CCN(c2ccc3ncnc(Nc4ccc(Oc5ccn6ncnc6c5)c(C)c4)c3n2)CC1` [Compound 8, 1-(4-{4-[(3-methyl-4-{[1,2,4]triazolo[1,5-a]pyridin-7-yloxy}phenyl)amino]pyrido[3,2-d]pyrimidin-6-yl}piperazin-1-yl)but-2-yn-1-one] are 5.29, 7.57 and 0.0189 µM.
Regarding `C=CC(=O)N1CCN(c2ccc3ncnc(Nc4ccc(Oc5ccn6ncnc6c5)c(C)c4)c3n2)C[C@@H]1C` [Compound 9, 1-[(2S)-2-methyl-4-{4-[(3-methyl-4-{[1,2,4]triazolo[1,5-a]pyridin-7-yloxy}phenyl)amino]pyrido[3,2-d]pyrimidin-6-yl}piperazin-1-yl]prop-2-en-1-one], the pIC50 is 5.99 in assay [1] and 7.97 in assay [3]. Further, the GI50 in assay [2] is 0.0075 µM.
For `C=CC(=O)N1CCN(c2ccc3ncnc(Nc4ccc(Oc5ccn6ncnc6c5)c(C)c4)c3n2)C[C@H]1C` [Compound 10, 1-[(2R)-2-methyl-4-{4-[(3-methyl-4-{[1,2,4]triazolo[1,5-a]pyridin-7-yloxy}phenyl)amino]pyrido[3,2-d]pyrimidin-6-yl}piperazin-1-yl]prop-2-en-1-one], the figures for the pIC50 in assay [1] and in assay [3] were 6.53 and 8.06, respectively. For the same compound, in assay [2], the GI50 was 0.00461 µM.
On the same counts, the results for `C=CC(=O)N1CCN(c2ccc3ncnc(Nc4ccc(Oc5ccn6ncnc6c5)c(C)c4)c3n2)[C@H](C)C1` [Compound 11, 1-[(3R)-3-methyl-4-{4-[(3-methyl-4-{[1,2,4]triazolo[1,5-a]pyridin-7-yloxy}phenyl)amino]pyrido[3,2-d]pyrimidin-6-yl}piperazin-1-yl]prop-2-en-1-one] are 5.63, 7.79 and 0.0179 µM.
On the same counts, the results for `C=CC(=O)N1CCN(c2ccc3ncnc(Nc4ccc(Oc5ccn6ncnc6c5)c(C)c4)c3n2)[C@@H](C)C1` [Compound 12, 1-[(3S)-3-methyl-4-{4-[(3-methyl-4-{[1,2,4]triazolo[1,5-a]pyridin-7-yloxy}phenyl)amino]pyrido[3,2-d]pyrimidin-6-yl}piperazin-1-yl]prop-2-en-1-one] are 5.93, 7.87 and 0.00749 µM.
In turn, `CC#CC(=O)N1C2CC1CN(c1ccc3ncnc(Nc4ccc(Oc5ccn6ncnc6c5)c(C)c4)c3n1)C2` [Compound 29, 1-(3-{4-[(3-methyl-4-{[1,2,4]triazolo[1,5-a]pyridin-7-yloxy}phenyl)amino]pyrido[3,2-d]pyrimidin-6-yl}-3,6-diazabicyclo[3.1.1]heptan-6-yl)but-2-yn-1-one] showed a pIC50 in assay [1] of 5.27. Moreover, the GI50 in assay [2] amounted to 0.0359 µM.
On to `Cc1cc(Nc2ncnc3ccc(NC4=NC(C)(C)CO4)cc23)ccc1Oc1ccn2ncnc2c1` [Tucatinib, tucatinib, reference compound], for which the GI50 in assay [2] came out at 0.356 µM.

Broadly, the pIC50 is the IC50 on a negative log10 scale, so that one unit is a factor of ten.

The values above are taken from patent publication US20250136595A1, “ACYLATED HETEROCYCLIC QUINAZOLINE DERIVATIVES AS INHIBITORS OF ERBB2” (Enliven Inc., priority 2022, published 2025).
